From PMC8129715 (CPT: Pharmacometrics & Systems Pharmacology, 2021)
Like-named read-outs stand apart in the source and are kept apart here.

Legend:
[1] = system: other CYP isoforms (1A2, 2A6, 2B6, 2C8, 2C9, 2C19, 2D6, 2E1, 2J2, 3A5, 4F12); assay: Metabolism by recombinant human CYP isoforms; format: in vitro ADME; conditions: 37°C for 20 min; unpublished data reported by Eisai Inc.
[2] = system: cryopreserved human hepatocytes; assay: Metabolism in cryopreserved human hepatocytes with CYP inhibitors; format: in vitro ADME; conditions: 1-aminobenzotriazole, troleandomycin and ketoconazole
CYP2B6 [3] = assay: In vitro induction; format: in vitro ADME; conditions: unpublished data reported by Eisai Inc.
[4] = Biliary excretion in rats; format: in vivo
[5] = capsule, cited from earlier work; for Observed AUC(0-t) / Observed Cmax: geometric mean; for Observed Cmax: healthy individuals
[6] = In vitro plasma protein binding; format: in vitro ADME, human; conditions: unpublished data reported by Eisai Inc.
P-glycoprotein = conditions: in vitro; cited from earlier work
CYP3A [7] = conditions: cited from earlier work
[8] = single 10 mg oral dose, IR tablet, DDI study, cited from earlier work
CYP3A4 [9] = assay: In vitro induction; format: in vitro ADME; conditions: unpublished data reported by Eisai Inc.
[10] = multiple 10 mg oral doses, capsule, cited from earlier work
[11] = cited from earlier work
[12] = PBPK simulation of lemborexant PK in healthy individuals; set-up: species or system human
CYP3A [13] = assay: In vitro time-dependent inhibition; format: in vitro ADME; conditions: unpublished data reported by Eisai Inc.
[14] = system: breast cancer resistance protein; conditions: in vitro; cited from earlier work
[15] = single 10 mg oral dose, IR tablet, ref study E2006-A001-008 (NCT02089412), cited from earlier work; for Observed Cmax: geometric mean
[16] = pKa by capillary electrophoresis method; format: physicochemical
[17] = human mass-balance study, cited from earlier work
CYP3A4 [18] = target: CYP3A4 (Homo sapiens, UniProt P08684); assay: Metabolism by recombinant human CYP isoforms; format: in vitro ADME; conditions: 37°C for 20 min; unpublished data reported by Eisai Inc.
[19] = cited from earlier work; remark: listed apart in the source
CYP2B6 [20] = conditions: lemborexant 10 mg q.d. for 13 days, bupropion 75 mg on day 10, healthy adults; cited from earlier work
[21] = Human blood to plasma concentration ratio; format: in vitro ADME
[22] = co-administration with rifampicin 600 mg q.d.
[23] = lemborexant 10 mg with fluconazole 200 mg q.d.
[24] = multiple 10 mg oral doses, day 1
[25] = multiple 10 mg oral doses, day 14
[26] = single 10 mg oral dose, IR tablet, fasted, food effect study
[27] = single 10 mg oral dose, IR tablet, fed
[28] = single 10 mg oral dose, solution vs capsule
[29] = single 100 mg oral dose, solution vs capsule

Sequence of CYP3A4 (Homo sapiens, UniProt P08684) (P08684 whole entry, canonical isoform): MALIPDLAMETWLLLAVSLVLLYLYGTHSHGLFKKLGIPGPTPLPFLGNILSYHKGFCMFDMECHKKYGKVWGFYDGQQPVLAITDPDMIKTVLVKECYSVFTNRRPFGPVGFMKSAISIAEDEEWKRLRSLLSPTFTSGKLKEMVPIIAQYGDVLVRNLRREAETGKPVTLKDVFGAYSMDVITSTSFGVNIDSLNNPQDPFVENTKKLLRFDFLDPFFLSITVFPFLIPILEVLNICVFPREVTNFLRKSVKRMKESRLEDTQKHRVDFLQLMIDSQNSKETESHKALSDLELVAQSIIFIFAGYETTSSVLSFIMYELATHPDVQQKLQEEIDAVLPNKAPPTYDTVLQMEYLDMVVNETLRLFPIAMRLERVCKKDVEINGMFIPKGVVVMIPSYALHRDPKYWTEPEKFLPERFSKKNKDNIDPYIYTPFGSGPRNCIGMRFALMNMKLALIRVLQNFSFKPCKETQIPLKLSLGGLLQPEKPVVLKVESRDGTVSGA

Cc1ncc(OC[C@@]2(c3cccc(F)c3)C[C@H]2C(=O)Nc2ccc(F)cn2)c(C)n1 [lemborexant]
residual ratio after incubation with other recombinant CYP isoforms [1]: ≥ 81% | lemborexant metabolism in human hepatocytes in presence of CYP inhibitors [2]: completely inhibited | inductive effect on CYP2B6 (CYP2B6 [3]): weak | biliary excretion of lemborexant [4]: no biliary excretion | Observed AUC(0-t) ([5]; single 2.5 mg oral dose): 74.4 ng·h/mL | Observed Cmax ([5]; single 2.5 mg oral dose): 14.9 ng/mL | Observed AUC(0-t) ([5]; single 10 mg oral dose): 274 ng·h/mL | Observed Cmax ([5]; single 10 mg oral dose): 32.0 ng/mL | Observed Tmax ([5]; single 10 mg oral dose, median): 1.00 h | Observed AUC(0-t) ([5]; single 100 mg oral dose): 4,300 ng∙h/ml | Observed Cmax ([5]; single 100 mg oral dose): 242 ng/mL | Main binding protein in plasma [6]: human serum albumin, low‐density lipoprotein, and high‐density lipoprotein | transport of lemborexant via P-glycoprotein (P-glycoprotein): negligible | increase in AUCR with strong and moderate CYP3A inhibitors (CYP3A [7]; co-administered with itraconazole and fluconazole): ≤ 3.8 fold | reduction of lemborexant AUC(0-inf) (CYP3A [7]; [22]): 97% | reduction of lemborexant Cmax (CYP3A [7]; [22]): 92% | increase in lemborexant AUC(0-t) (CYP3A [7]; [23]): 3.8 fold | increase in lemborexant Cmax (CYP3A [7]; [23]): 1.6 fold | increase in lemborexant Cmax (CYP3A [7]; lemborexant 10 mg with itraconazole 200 mg q.d.): 1.36 fold | Observed AUC(0-t) ([8]; geometric mean): 411 ng·h/mL | Observed Tmax ([8]; median): 1.00 h | Observed Cmax ([8]; healthy individuals, geometric mean): 54.3 ng/mL | inductive effect on CYP3A4 (CYP3A4 [9]): weak | Observed AUC(0-t) ([10]; day 1, geometric mean): 182 ng·h/mL | Observed Cmax ([10]; day 1, geometric mean): 28.0 ng/mL | Observed Tmax ([10]; day 1, median): 3.25 h | Observed AUC(0-t) ([10]; day 14, geometric mean): 321 ng·h/mL | Observed Cmax ([10]; day 14, geometric mean): 44.8 ng/mL | Observed Tmax ([10]; day 14, median): 1.75 h | clinical efficacy (sleep) ([11]; doses of 5 mg and above): clinically meaningful sleep benefits | somnolence adverse events ([11]; lemborexant exposures greater than 10 mg): increased risk of somnolence adverse events | fold difference (predicted/observed) of Cmax ratio for fasted and fed conditions ([12]; food effect study 008, 10 mg IR tablet): 0.768 | Fold difference, predicted/observed, AUC(0-t) [12, 24]: 0.92 | Fold difference, predicted/observed, Cmax [12, 24]: 0.86 | Fold difference, predicted/observed, AUC(0-t) [12, 25]: 1.02 | Fold difference, predicted/observed, Cmax [12, 25]: 0.73 | Fold difference, predicted/observed, AUC(0-t) ([12]; single 2.5 mg oral dose, solution vs capsule): 0.89 | Fold difference, predicted/observed, AUC(0-t) ([12]; single 10 mg oral dose, IR tablet): 0.80 | Fold difference, predicted/observed, AUC(0-t) [12, 26]: 0.85 | Fold difference, predicted/observed, Cmax [12, 26]: 0.45 | Fold difference, predicted/observed, AUC(0-t) [12, 27]: 0.71 | Fold difference, predicted/observed, Cmax [12, 27]: 0.34 | Fold difference, predicted/observed, AUC(0-t) [12, 28]: 1.29 | Fold difference, predicted/observed, Cmax [12, 28]: 0.85 | Fold difference, predicted/observed, AUC(0-t) [12, 29]: 0.76 | Fold difference, predicted/observed, Cmax [12, 29]: 1.08 | time-dependent inhibition on CYP3A (CYP3A [13]): weak | transport of lemborexant via breast cancer resistance protein [14]: negligible | Observed Cmax ([15]; fasted, food effect study): 57.1 ng/mL | Observed Tmax ([15]; fasted, food effect study, median): 1.00 h | Observed Cmax ([15]; fed (standard high-fat meal)): 44.1 ng/mL | pKa [16]: < 3.5 | CL/F (apparent oral clearance) ([17]; 10 mg capsule): 32.8 L/h | unchanged lemborexant in feces ([17]; [14C]lemborexant 10 mg): 13.0 % of dose | unchanged lemborexant in urine ([17]; [14C]lemborexant 10 mg): not detected | residual ratio after incubation with recombinant CYP3A4 (CYP3A4 [18]): 30% | in vitro plasma protein binding (bound) ([19]; human plasma, 100–1000 ng/ml, no concentration dependency): 87.4–88.7% | Fu (fraction unbound in plasma) ([19]; mean value based on lemborexant 100 ng/ml): 0.113 | decrease in plasma exposures of S-bupropion (CYP2B6 [20]): 45.5% | blood plasma ratio ([21]; B:P (blood-to-plasma partition ratio), mean, mean value from unpublished data reported by Eisai Inc.): 0.636 | blood plasma ratio ([21]; human blood to plasma concentration ratio (B:P), concentration range 100–1000 ng/ml, unpublished data reported by Eisai Inc.): 0.61 to 0.656
